Patent US20230322761A1, “DEGRADATION OF BRUTON'S TYROSINE KINASE (BTK) BY CONJUGATION OF BTK INHIBITORS WITH E3 LIGASE LIGAND AND METHODS OF USE” (BEIGENE, LTD., priority 2020, published 2023)
Where “and” joins values, the source holds several entries; their conditions need not be identical. Equal entries are not always repeated. Structures can show the parent of a compound that is named as a salt.

Biological target: T1, BTK (Homo sapiens, UniProt Q06187)
T1 construct: endogenous in cells; host or cells: TMD-8 cells
T1 sequence (Q06187 whole entry): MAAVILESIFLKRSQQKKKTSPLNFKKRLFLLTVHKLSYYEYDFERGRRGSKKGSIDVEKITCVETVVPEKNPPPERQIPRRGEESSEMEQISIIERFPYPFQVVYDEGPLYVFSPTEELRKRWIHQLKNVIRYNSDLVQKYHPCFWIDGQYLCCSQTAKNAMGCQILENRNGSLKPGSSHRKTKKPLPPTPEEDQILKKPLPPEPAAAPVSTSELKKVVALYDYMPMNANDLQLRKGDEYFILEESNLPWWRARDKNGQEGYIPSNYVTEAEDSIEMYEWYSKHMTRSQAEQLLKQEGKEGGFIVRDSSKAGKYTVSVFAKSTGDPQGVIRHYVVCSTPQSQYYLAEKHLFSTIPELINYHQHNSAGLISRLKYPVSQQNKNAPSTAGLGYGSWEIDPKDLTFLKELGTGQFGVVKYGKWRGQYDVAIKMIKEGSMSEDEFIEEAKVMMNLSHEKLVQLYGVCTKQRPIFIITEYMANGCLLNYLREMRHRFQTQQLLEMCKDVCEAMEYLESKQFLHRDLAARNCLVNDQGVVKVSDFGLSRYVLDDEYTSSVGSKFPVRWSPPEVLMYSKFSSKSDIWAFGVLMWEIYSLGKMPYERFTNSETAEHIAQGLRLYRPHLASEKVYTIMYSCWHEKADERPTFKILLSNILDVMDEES
Test: BTK degradation in TMD-8 cells, HTRF assay after 6 h treatment
Assay type: cell-based
Conditions: for DC50: IC50 (DC50) of BTK degradation; for Dmax: TMD8, maximum percentage of inhibition (degradation)
Method in brief: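 Remaining BTK was quantified by HTRF in lysates of TMD-8 cells after 6 h exposure to an 8-point, 6-fold compound series (500× stocks in DMSO starting at 1 mM; 0.2% DMSO). Lysis 30 min, antibodies overnight at room temperature, ratio read at 665/620 nm; DC50 fitted with a four-parameter logistic equation.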

Row | Structure (SMILES) | DC50 | Dmax [%] | DC50 (formate) [nM]
1 | Cc1cc(-c2n[nH]c3ncc(-c4ccc(C5CCN(CC6CCN(c7ccc(N8CCC(=O)NC8=O)cc7)CC6)CC5)cc4)cc23)ccc1CNC(=O)c1nc(C(C)(C)C)no1 [Example 4, 3-(tert-butyl)-N-(4-(5-(4-(1-((1-(4-(2,4-dioxotetrahydropyrimidin-1(2H)-yl)phenyl)piperidin-4-yl)methyl)piperidin-4-yl)phenyl)-1H-pyrazolo[3,4-b]pyridin-3-yl)-2-methylbenzyl)-1,2,4-oxadiazole-5-carboxamide] | 1.19 nM | 96.7 | 
2 | Cc1cc(-c2n[nH]c3ncc(-c4ccc(C5CCN(CC6CCN(c7ccc(N8CCC(=O)NC8=O)cc7)CC6)CC5)cn4)cc23)ccc1[C@@H](C)NC(=O)c1noc(C(C)(C)C)n1 [Example 72, (R)-5-(tert-butyl)-N-(1-(4-(5-(5-(1-((1-(4-(2,4-dioxotetrahydropyrimidin-1(2H)-yl)phenyl)piperidin-4-yl)methyl)piperidin-4-yl)pyridin-2-yl)-1H-pyrazolo[3,4-b]pyridin-3-yl)-2-methylphenyl)ethyl)-1,2,4-oxadiazole-3-carboxamide] | 1.21 nM |  | 
3 | Cc1cc(-c2n[nH]c3ncc(-c4ccc(N5CCN(C6CCN(c7ccc(NC8CCC(=O)NC8=O)cc7)CC6)CC5)cc4)cc23)ccc1[C@@H](C)NC(=O)c1noc(C(C)(C)C)n1 (stereo partly drawn) [Example 180, 5-(tert-butyl)-N-((1R)-1-(4-(5-(4-(4-(1-(4-((2,6-dioxopiperidin-3-yl)amino)phenyl)piperidin-4-yl)piperazin-1-yl)phenyl)-1H-pyrazolo[3,4-b]pyridin-3-yl)-2-methylphenyl)ethyl)-1,2,4-oxadiazole-3-carboxamide] | 4.81 nM |  | 
4 | Cc1cc(-c2n[nH]c3ncc(-c4ccc(N5CCN(CCc6ccc(N7CC(=O)NC7=O)cc6)CC5)cc4)cc23)ccc1[C@@H](C)NC(=O)c1nc(C(C)(C)C)no1 [Example 217, (R)-3-(tert-butyl)-N-(1-(4-(5-(4-(4-(4-(2,4-dioxoimidazolidin-1-yl)phenethyl)piperazin-1-yl)phenyl)-1H-pyrazolo[3,4-b]pyridin-3-yl)-2-methylphenyl)ethyl)-1,2,4-oxadiazole-5-carboxamide] | 1960 nM |  | 
5 | Cc1cc(-c2n[nH]c3ncc(-c4ccc(N5CCN(CCn6nc(C)c(C7CCC(=O)NC7=O)c6C)CC5)cc4)cc23)ccc1[C@@H](C)NC(=O)c1nc(C(C)(C)C)no1 (stereo partly drawn) [Example 196, 3-(tert-butyl)-N-((1R)-1-(4-(5-(4-(4-(2-(4-(2,6-dioxopiperidin-3-yl)-3,5-dimethyl-1H-pyrazol-1-yl)ethyl)piperazin-1-yl)phenyl)-1H-pyrazolo[3,4-b]pyridin-3-yl)-2-methylphenyl)ethyl)-1,2,4-oxadiazole-5-carboxamide] | 1.05 nM |  | 
6 | Cc1cc(-c2n[nH]c3ncc(-c4ccc(N5CCN(CCC6CCN(c7ccc([C@@H]8CCC(=O)NC8=O)cc7)CC6)CC5)cc4)cc23)ccc1CNC(=O)c1noc(C(C)(C)C)n1 [Example 92, (S)-5-(tert-butyl)-N-(4-(5-(4-(4-(2-(1-(4-(2,6-dioxopiperidin-3-yl)phenyl)piperidin-4-yl)ethyl)piperazin-1-yl)phenyl)-1H-pyrazolo[3,4-b]pyridin-3-yl)-2-methylbenzyl)-1,2,4-oxadiazole-3-carboxamide] | 7.24 nM |  | 
7 | Cc1cc(-c2n[nH]c3ncc(-c4ccc(C5CCN(CCc6ccc(OC7CCC(=O)NC7=O)cc6)CC5)cc4)cc23)ccc1CNC(=O)c1nc(C(C)(C)C)no1 (centres unmarked) [Example 29, 3-(tert-butyl)-N-(4-(5-(4-(1-(4-((2,6-dioxopiperidin-3-yl)oxy)phenethyl)piperidin-4-yl)phenyl)-1H-pyrazolo[3,4-b]pyridin-3-yl)-2-methylbenzyl)-1,2,4-oxadiazole-5-carboxamide] | 3.2 nM | 95.4 | 
8 | Cc1cc(-c2n[nH]c3ncc(-c4ccc(C5(O)CCN(CC6CCN(c7ccc(N8CCC(=O)NC8=O)cc7)CC6)CC5)cc4)cc23)ccc1[C@@H](C)NC(=O)c1nc(C(C)(C)C)no1 [Example 201, (R)-3-(tert-butyl)-N-(1-(4-(5-(4-(1-((1-(4-(2,4-dioxotetrahydropyrimidin-1(2H)-yl)phenyl)piperidin-4-yl)methyl)-4-hydroxypiperidin-4-yl)phenyl)-1H-pyrazolo[3,4-b]pyridin-3-yl)-2-methylphenyl)ethyl)-1,2,4-oxadiazole-5-carboxamide] | 1.79 nM |  | 
9 | Cc1cc(-c2n[nH]c3ncc(-c4ccc(N5CCN(CCc6ccc(C7CCC(=O)NC7=O)c(F)c6)CC5)cc4)cc23)ccc1[C@@H](C)NC(=O)c1noc(C(C)(C)C)n1 (stereo partly drawn) [Example 36, 5-(tert-butyl)-N-((1R)-1-(4-(5-(4-(4-(4-(2,6-dioxopiperidin-3-yl)-3-fluorophenethyl)piperazin-1-yl)phenyl)-1H-pyrazolo[3,4-b]pyridin-3-yl)-2-methylphenyl)ethyl)-1,2,4-oxadiazole-3-carboxamide] | 3 nM | 98.3 | 
10 | Cc1cc(-c2n[nH]c3ncc(-c4ccc(N5CCN(CC6CCN(c7ccc(N8CCC(=O)NC8=O)cc7)CC6)CC5)cc4)cc23)ccc1CNC(=O)c1noc(C(C)(C)C)n1 [Example 22, 5-(tert-butyl)-N-(4-(5-(4-(4-((1-(4-(2,4-dioxotetrahydropyrimidin-1(2H)-yl)phenyl)piperidin-4-yl)methyl)piperazin-1-yl)phenyl)-1H-pyrazolo[3,4-b]pyridin-3-yl)-2-methylbenzyl)-1,2,4-oxadiazole-3-carboxamide] | 9.1 nM | 97.6 | 
11 | Cc1cc(-c2n[nH]c3ncc(-c4ccc(N5CCN(CC6CCN(c7ccc(N8CCC(=O)NC8=O)c(C)c7)CC6)CC5)nc4)cc23)ccc1CNC(=O)c1noc(C(C)(C)C)n1 [Example 69, 5-(tert-butyl)-N-(4-(5-(6-(4-((1-(4-(2,4-dioxotetrahydropyrimidin-1(2H)-yl)-3-methylphenyl)piperidin-4-yl)methyl)piperazin-1-yl)pyridin-3-yl)-1H-pyrazolo[3,4-b]pyridin-3-yl)-2-methylbenzyl)-1,2,4-oxadiazole-3-carboxamide] | 2.5 nM and 2.37 nM |  | 
12 | Cc1cc(-c2n[nH]c3ncc(-c4ccc(N5CCN(C6CC(c7ccc(C8CCC(=O)NC8=O)cc7)C6)CC5)cc4)cc23)ccc1[C@@H](C)NC(=O)c1noc(C(C)(C)C)n1 (stereo partly drawn) [Example 176, 5-(tert-butyl)-N-((1R)-1-(4-(5-(4-(4-(3-(4-(2,6-dioxopiperidin-3-yl)phenyl)cyclobutyl)piperazin-1-yl)phenyl)-1H-pyrazolo[3,4-b]pyridin-3-yl)-2-methylphenyl)ethyl)-1,2,4-oxadiazole-3-carboxamide formate] |  |  | 1.89
13 | CC(C)(C)c1nc(C(=O)NCc2ccc(-c3n[nH]c4ncc(-c5ccc(C6CCN(CC7CCN(c8ccc(N9CCC(=O)NC9=O)cc8)CC7)CC6)cc5)cc34)cc2F)no1 [Example 15, 5-(tert-butyl)-N-(4-(5-(4-(1-((1-(4-(2,4-dioxotetrahydropyrimidin-1(2H)-yl)phenyl)piperidin-4-yl)methyl)piperidin-4-yl)phenyl)-1H-pyrazolo[3,4-b]pyridin-3-yl)-2-fluorobenzyl)-1,2,4-oxadiazole-3-carboxamide] | 6.38 nM | 94.9 | 
14 | Cc1cc(-c2n[nH]c3ncc(-c4ccc(C5CCN(C6CC(c7ccc(C8CCC(=O)NC8=O)cc7)C6)CC5)nc4)cc23)ccc1[C@@H](C)NC(=O)c1noc(C(C)(C)C)n1 (stereo partly drawn) [Example 197, 5-(tert-butyl)-N-((1R)-1-(4-(5-(6-(1-(3-(4-(2,6-dioxopiperidin-3-yl)phenyl)cyclobutyl)piperidin-4-yl)pyridin-3-yl)-1H-pyrazolo[3,4-b]pyridin-3-yl)-2-methylphenyl)ethyl)-1,2,4-oxadiazole-3-carboxamide] | 1.08 nM |  | 
15 | Cc1cc(-c2n[nH]c3ncc(-c4ccc(N5CCN(C6CC(c7ccc([C@@H]8CCC(=O)NC8=O)cc7)C6)CC5)cc4)cc23)ccc1[C@@H](C)NC(=O)c1noc(C(C)(C)C)n1 (stereo partly drawn) [Example 209, 5-(tert-butyl)-N—((R)-1-(4-(5-(4-(4-((1R,3s)-3-(4-((S)-2,6-dioxopiperidin-3-yl)phenyl)cyclobutyl)piperazin-1-yl)phenyl)-1H-pyrazolo[3,4-b]pyridin-3-yl)-2-methylphenyl)ethyl)-1,2,4-oxadiazole-3-carboxamide] | 13.6 nM |  | 
16 | Cc1cc(-c2n[nH]c3ncc(-c4ccc(N5CCN(CC6CCN(c7ccc(N8CCC(=O)NC8=O)cc7)CC6)CC5)nc4)cc23)ccc1CNC(=O)c1noc(C(C)(C)C)n1 [Example 65, 5-(tert-butyl)-N-(4-(5-(6-(4-((1-(4-(2,4-dioxotetrahydropyrimidin-1(2H)-yl)phenyl)piperidin-4-yl)methyl)piperazin-1-yl)pyridin-3-yl)-1H-pyrazolo[3,4-b]pyridin-3-yl)-2-methylbenzyl)-1,2,4-oxadiazole-3-carboxamide] | 7.67 nM |  | 
17 | Cc1c(CNC(=O)c2noc(C(C)(C)C)n2)ccc(-c2n[nH]c3ncc(-c4ccc(C5CCN(CC6CCN(c7ccc(N8CCC(=O)NC8=O)cc7)CC6)CC5)cc4)cc23)c1F [Example 221, 5-(tert-butyl)-N-(4-(5-(4-(1-((1-(4-(2,4-dioxotetrahydropyrimidin-1(2H)-yl)phenyl)piperidin-4-yl)methyl)piperidin-4-yl)phenyl)-1H-pyrazolo[3,4-b]pyridin-3-yl)-3-fluoro-2-methylbenzyl)-1,2,4-oxadiazole-3-carboxamide] | 1.12 nM |  | 
18 | Cc1cc(-c2n[nH]c3ncc(-c4ccc(N5CCN(CCn6nc(C)c(N7CCC(=O)NC7=O)c6C)CC5)cc4)cc23)ccc1[C@@H](C)NC(=O)c1noc(C(C)(C)C)n1 [Example 164, (R)-5-(tert-butyl)-N-(1-(4-(5-(4-(4-(2-(4-(2,4-dioxotetrahydropyrimidin-1(2H)-yl)-3,5-dimethyl-1H-pyrazol-1-yl)ethyl)piperazin-1-yl)phenyl)-1H-pyrazolo[3,4-b]pyridin-3-yl)-2-methylphenyl)ethyl)-1,2,4-oxadiazole-3-carboxamide] | 2.05 nM |  | 
